Data reported in PubChem BioAssay (NCI).
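Briefly, cells in 96-well plates were exposed to five compound concentrations for 48 h, and endpoints were estimated by linear interpolation. GI50: concentration for 50% inhibition of growth. TGI is the concentration that stops growth completely.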

What was measured:
Test in all cases: growth of human tumour cells (NCI), 48 h
SW-620 colon = test system: SW-620 colon
HT29 colon = test system: HT29 colon
RXF 393 renal = test system: RXF 393 renal
K-562 leukemia = test system: K-562 leukemia
HOP-62 NSCLC = test system: HOP-62 NSCLC
HL-60(TB) leukemia = test system: HL-60(TB) leukemia
NCI/ADR-RES ovarian = test system: NCI/ADR-RES ovarian
UO-31 renal = test system: UO-31 renal
OVCAR-8 ovarian = test system: OVCAR-8 ovarian
SNB-75 CNS = test system: SNB-75 CNS
SNB-19 CNS = test system: SNB-19 CNS
DU-145 prostate = test system: DU-145 prostate
NCI-H23 lung = test system: NCI-H23 lung
HCT-116 colon = test system: HCT-116 colon
SK-MEL-28 melanoma = test system: SK-MEL-28 melanoma
MDA-MB-435 = test system: MDA-MB-435
IGROV1 ovarian = test system: IGROV1 ovarian
COLO 205 colon = test system: COLO 205 colon
RPMI-8226 leukemia = test system: RPMI-8226 leukemia
ACHN renal = test system: ACHN renal
U251 CNS = test system: U251 CNS
OVCAR-3 ovarian = test system: OVCAR-3 ovarian
M14 melanoma = test system: M14 melanoma
PC-3 prostate = test system: PC-3 prostate
SF-295 CNS = test system: SF-295 CNS
SR leukemia = test system: SR leukemia
OVCAR-5 ovarian = test system: OVCAR-5 ovarian
SK-MEL-2 melanoma = test system: SK-MEL-2 melanoma
HS 578T breast = test system: HS 578T breast

Cc1ccc2c(NCCCN(C)C)c3c(C)nn(C)c3nc2c1
TGI (SW-620 colon): 35.5 µM
GI50 (HT29 colon): 2.62 µM
TGI (HT29 colon): 8.88 µM
GI50 (RXF 393 renal): 2.71 µM
TGI (RXF 393 renal): 12.1 µM
GI50 (K-562 leukemia): 3.14 µM
TGI (K-562 leukemia): > 100 µM
GI50 (HOP-62 NSCLC): 6.46 µM
TGI (HOP-62 NSCLC): 60.2 µM
GI50 (HL-60(TB) leukemia): 5.08 µM
TGI (HL-60(TB) leukemia): 22.9 µM
GI50 (NCI/ADR-RES ovarian): 3.34 µM
TGI (NCI/ADR-RES ovarian): 66.4 µM
GI50 (UO-31 renal): 2.68 µM
TGI (UO-31 renal): 14 µM
GI50 (OVCAR-8 ovarian): 3.73 µM
TGI (OVCAR-8 ovarian): 21.7 µM
GI50 (SNB-75 CNS): 1.89 µM
TGI (SNB-75 CNS): 10.9 µM
GI50 (SNB-19 CNS): 3.96 µM
TGI (SNB-19 CNS): 39.1 µM
GI50 (DU-145 prostate): 3.88 µM
TGI (DU-145 prostate): 37.7 µM
GI50 (NCI-H23 lung): 5.29 µM
TGI (NCI-H23 lung): 25.3 µM
GI50 (HCT-116 colon): 3.04 µM
TGI (HCT-116 colon): 25.1 µM
GI50 (SK-MEL-28 melanoma): 4.44 µM
TGI (SK-MEL-28 melanoma): 17.3 µM
GI50 (MDA-MB-435): 3.28 µM
TGI (MDA-MB-435): 14 µM
GI50 (IGROV1 ovarian): 4.17 µM
TGI (IGROV1 ovarian): 29.6 µM
GI50 (COLO 205 colon): 3.03 µM
TGI (COLO 205 colon): 11.4 µM
GI50 (RPMI-8226 leukemia): 3.3 µM
TGI (RPMI-8226 leukemia): 14.4 µM
GI50 (ACHN renal): 2.25 µM
TGI (ACHN renal): 16.9 µM
GI50 (U251 CNS): 4.77 µM
TGI (U251 CNS): 29.4 µM
GI50 (OVCAR-3 ovarian): 4.13 µM
TGI (OVCAR-3 ovarian): 24.8 µM
GI50 (M14 melanoma): 4.34 µM
TGI (M14 melanoma): 17.6 µM
GI50 (PC-3 prostate): 3.59 µM
TGI (PC-3 prostate): 16.3 µM
GI50 (SF-295 CNS): 3.83 µM
TGI (SF-295 CNS): 28.4 µM
GI50 (SR leukemia): 3.36 µM
TGI (SR leukemia): > 100 µM
GI50 (OVCAR-5 ovarian): 3.69 µM
TGI (OVCAR-5 ovarian): 22.4 µM
GI50 (SK-MEL-2 melanoma): 3.64 µM
TGI (SK-MEL-2 melanoma): 11.1 µM
GI50 (HS 578T breast): 4.24 µM
TGI (HS 578T breast): 33.5 µM
